In patent publication EP4389751A1, “HETEROCYCLIC COMPOUNDS AND USES THEREOF” (Kumquat Biosciences Inc., priority 2021, dated 2024):

target: T1, K-Ras G12S (Homo sapiens, UniProt P01116, G12S); assay: HTRF assay of the K-Ras / SOS1 interaction; format: biochemical; conditions: IC50 (against K-Ras G12D) to IC50 (against K-Ras G12S)
T1 construct: made in house; host or cells: E. coli (e.g., BL21 (DE3))
How it was run: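 GST-K-Ras G12S with anti-GST-Eu donor and His-hSOS1 with anti-6His-XL665 acceptor in ~5 mM HEPES pH 7.4, ~150 mM NaCl, 1 mM DTT, 0.05% BSA, 0.0025% Igepal. Read after ~10 min or longer; IC50 from 665/620 nm ratio, duplicates at 10 µM down to 0.01 µM.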

T1 sequence (P01116 1-188 isoform P01116-2 G12S): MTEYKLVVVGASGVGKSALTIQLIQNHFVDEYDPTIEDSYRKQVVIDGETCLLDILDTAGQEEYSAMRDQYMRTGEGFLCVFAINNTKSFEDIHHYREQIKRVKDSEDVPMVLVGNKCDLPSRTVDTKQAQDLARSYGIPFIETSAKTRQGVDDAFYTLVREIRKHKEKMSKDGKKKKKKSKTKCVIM

| Structure (SMILES) | Ratio of IC50 KRAS G12D vs. IC50 KRAS G12S |
| --- | --- |
| N#CCc1ncn(C(=O)N2CC3(C2)CN(c2nc(OC[C@@]45CCCN4C[C@H](F)C5)nc4c(F)c(-c5ccc(F)c6sc(N)c(C#N)c56)c(Cl)cc24)CCO3)n1 [Compound A110, 2-amino-4-(6-chloro-4-(2-(3-(cyanomethyl)-1H-1,2,4-triazole-1-carbonyl)-5-oxa-2,8-diazaspiro[3.5]nonan-8-yl)-8-fluoro-2-(((2R,7aS)-2-fluorotetrahydro-1H-pyrrolizin-7a(5H)-yl)methoxy)quinazolin-7-yl)-7-fluorobenzo[b]thiophene-3-carbonitrile] | A (A: indicates that the ratio of IC50 against KrasG12D vs. IC50 against KrasG12S is 1-fold or greater) |
| Nc1nc2c(-c3c(Cl)cc4c(N5CCCC6(CN(C(=O)n7cncn7)C6)C5)nc(OC[C@@]56CCCN5C[C@H](F)C6)nc4c3F)ccc(F)c2s1 [Compound A136, (6-(7-(2-amino-7-fluorobenzo[d]thiazol-4-yl)-6-chloro-8-fluoro-2-(((2R,7aS)-2-fluorotetrahydro-1H-pyrrolizin-7a(5H)-yl)methoxy)quinazolin-4-yl)-2,6-diazaspiro[3.5]nonan-2-yl)(1H-1,2,4-triazol-1-yl)methanone] | A (A: indicates that the ratio of IC50 against KrasG12D vs. IC50 against KrasG12S is 1-fold or greater) |
| Nc1nc2c(-c3c(Cl)cc4c(N5CCCN(C(=O)n6cncn6)CC5)nc(OC[C@@]56CCCN5C[C@H](F)C6)nc4c3F)ccc(F)c2s1 [Compound A191, (4-(7-(2-amino-7-fluorobenzo[d]thiazol-4-yl)-6-chloro-8-fluoro-2-(((2R,7aS)-2-fluorotetrahydro-1H-pyrrolizin-7a(5H)-yl)methoxy)quinazolin-4-yl)-1,4-diazepan-1-yl)(1H-1,2,4-triazol-1-yl)methanone] | A (A: indicates that the ratio of IC50 against KrasG12D vs. IC50 against KrasG12S is 1-fold or greater) |
| N#Cc1c(N)sc2c(F)ccc(-c3c(Cl)cc4c(OC5CCCCN(C(=O)n6cncn6)C5)nc(OC[C@@]56CCCN5C[C@H](F)C6)nc4c3F)c12 (stereo partly drawn) [Compound A258, 4-(4-((1-(1H-1,2,4-triazole-1-carbonyl)azepan-3-yl)oxy)-6-chloro-8-fluoro-2-(((2R,7aS)-2-fluorotetrahydro-1H-pyrrolizin-7a(5H)-yl)methoxy)quinazolin-7-yl)-2-amino-7-fluorobenzo[b]thiophene-3-carbonitrile] | A (A: indicates that the ratio of IC50 against KrasG12D vs. IC50 against KrasG12S is 1-fold or greater) |
| N#Cc1c(N)sc2c(F)ccc(-c3ncc4c(N5CCCC6(CN(C(=O)n7cncn7)C6)C5)nc(OC[C@@]56CCCN5C[C@H](F)C6)nc4c3F)c12 [Compound A134, 4-(4-(2-(1H-1,2,4-triazole-1-carbonyl)-2,6-diazaspiro[3.5]nonan-6-yl)-8-fluoro-2-(((2R,7aS)-2-fluorotetrahydro-1H-pyrrolizin-7a(5H)-yl)methoxy)pyrido[4,3-d]pyrimidin-7-yl)-2-amino-7-fluorobenzo[b]thiophene-3-carbonitrile] | A (A: indicates that the ratio of IC50 against KrasG12D vs. IC50 against KrasG12S is 1-fold or greater) |
| N#Cc1c(N)sc2c(F)ccc(-c3c(Cl)cc4c(N5CCCC6(CN(C(=O)n7cncn7)C6)C5)nc(OC[C@@]56CCCN5C[C@H](F)C6)nc4c3F)c12 [Compound A129, 4-(4-(2-(1H-1,2,4-triazole-1-carbonyl)-2,6-diazaspiro[3.5]nonan-6-yl)-6-chloro-8-fluoro-2-(((2R,7aS)-2-fluorotetrahydro-1H-pyrrolizin-7a(5H)-yl)methoxy)quinazolin-7-yl)-2-amino-7-fluorobenzo[b]thiophene-3-carbonitrile] | A (A: indicates that the ratio of IC50 against KrasG12D vs. IC50 against KrasG12S is 1-fold or greater) |
| Nc1nc2c(-c3c(Cl)cc4c(N5CCN(C(=O)n6cncn6)CC(F)(F)C5)nc(OC[C@@]56CCCN5C[C@H](F)C6)nc4c3F)ccc(F)c2s1 [Compound A141, (4-(7-(2-amino-7-fluorobenzo[d]thiazol-4-yl)-6-chloro-8-fluoro-2-(((2R,7aS)-2-fluorotetrahydro-1H-pyrrolizin-7a(5H)-yl)methoxy)quinazolin-4-yl)-6,6-difluoro-1,4-diazepan-1-yl)(1H-1,2,4-triazol-1-yl)methanone] | A (A: indicates that the ratio of IC50 against KrasG12D vs. IC50 against KrasG12S is 1-fold or greater) |
| N#Cc1c(N)sc2c(F)ccc(-c3c(Cl)cc4c(N[C@H]5C[C@H]6CC[C@@H](C5)N6C(=O)n5cncn5)nc(OC[C@@]56CCCN5C[C@H](F)C6)nc4c3F)c12 [Compound A257, 4-(4-(((1R,3r,5S)-8-(1H-1,2,4-triazole-1-carbonyl)-8-azabicyclo[3.2.1]octan-3-yl)amino)-6-chloro-8-fluoro-2-(((2R,7aS)-2-fluorotetrahydro-1H-pyrrolizin-7 a(5H)-yl)methoxy)quinazolin-7-yl)-2-amino-7-fluorobenzo[b]thiophene-3-carbonitrile] | A (A: indicates that the ratio of IC50 against KrasG12D vs. IC50 against KrasG12S is 1-fold or greater) |
| N#Cc1c(N)sc2c(F)ccc(-c3c(Cl)cc4c(N5CCC6C5CN6C(=O)n5cncn5)nc(OC[C@@]56CCCN5C[C@H](F)C6)nc4c3F)c12 (stereo partly drawn) [Compound A183, 4-(4-(6-(1H-1,2,4-triazole-1-carbonyl)-2,6-diazabicyclo[3.2.0]heptan-2-yl)-6-chloro-8-fluoro-2-(((2R,7aS)-2-fluorotetrahydro-1H-pyrrolizin-7a(5H)-yl)methoxy)quinazolin-7-yl)-2-amino-7-fluorobenzo[b]thiophene-3-carbonitrile] | A (A: indicates that the ratio of IC50 against KrasG12D vs. IC50 against KrasG12S is 1-fold or greater) |
| N#Cc1c(N)sc2c(F)ccc(-c3c(Cl)cc4c(N5CCC6C5CCCN6C(=O)n5cncn5)nc(OC[C@@]56CCCN5C[C@H](F)C6)nc4c3F)c12 (stereo partly drawn) [Compound A152, 4-(4-(4-(1H-1,2,4-triazole-1-carbonyl)octahydro-1H-pyrrolo[3,2-b]pyridin-1-yl)-6-chloro-8-fluoro-2-(((2R,7aS)-2-fluorotetrahydro-1H-pyrrolizin-7a(5H)-yl)methoxy)quinazolin-7-yl)-2-amino-7-fluorobenzo[b]thiophene-3-carbonitrile] | A (A: indicates that the ratio of IC50 against KrasG12D vs. IC50 against KrasG12S is 1-fold or greater) |
| N#Cc1cn(C(=O)N2C3CCC2CN(c2nc(OC[C@@]45CCCN4C[C@H](F)C5)nc4c(F)c(-c5ccc(F)c6sc(N)nc56)c(Cl)cc24)C3)cn1 [Compound A123, 1-(3-(7-(2-amino-7-fluorobenzo[d]thiazol-4-yl)-6-chloro-8-fluoro-2-(((2R,7aS)-2-fluorotetrahydro-1H-pyrrolizin-7a(5H)-yl)methoxy)quinazolin-4-yl)-3,8-diazabicyclo[3.2. 1]octane-8-carbonyl)-1H-imidazole-4-carbonitrile] | A (A: indicates that the ratio of IC50 against KrasG12D vs. IC50 against KrasG12S is 1-fold or greater) |
| Cc1nc(C)n(C(=O)N2CC3(C2)CN(c2nc(OC[C@@]45CCCN4C[C@H](F)C5)nc4c(F)c(-c5ccc(F)c6sc(N)c(C#N)c56)c(Cl)cc24)CCO3)n1 [Compound A283, 2-amino-4-(6-chloro-4-(2-(3,5-dimethyl-1H-1,2,4-triazole-1-carbonyl)-5-oxa-2,8-diazaspiro[3.5]nonan-8-yl)-8-fluoro-2-(((2R,7aS)-2-fluorotetrahydro-1H-pyrrolizin-7a(5H)-yl)methoxy)quinazolin-7-yl)-7-fluorobenzo[b]thiophene-3-carbonitrile] | A (A: indicates that the ratio of IC50 against KrasG12D vs. IC50 against KrasG12S is 1-fold or greater) |
| N#Cc1c(N)sc2c(F)ccc(-c3c(Cl)cc4c(N5CCC6(CN(C(=O)n7cncn7)C6)C5)nc(OC[C@@]56CCCN5C[C@H](F)C6)nc4c3F)c12 [Compound A277, 4-(4-(2-(1H-1,2,4-triazole-1-carbonyl)-2,6-diazaspiro[3.4]octan-6-yl)-6-chloro-8-fluoro-2-(((2R,7aS)-2-fluorotetrahydro-1H-pyrrolizin-7a(5H)-yl)methoxy)quinazolin-7-yl)-2-amino-7-fluorobenzo[b]thiophene-3-carbonitrile] | A (A: indicates that the ratio of IC50 against KrasG12D vs. IC50 against KrasG12S is 1-fold or greater) |
| Cc1ncn(C(=O)N2CC3CCN(c4nc(OC[C@@]56CCCN5C[C@H](F)C6)nc5c(F)c(-c6ccc(F)c7sc(N)c(C#N)c67)c(Cl)cc45)C3C2)n1 (stereo partly drawn) [Compound A304, 2-amino-4-(6-chloro-8-fluoro-2-(((2R,7aS)-2-fluorotetrahydro-1H-pyrrolizin-7a(5H)-yl)methoxy)-4-(5-(3-methyl-1 H-1,2,4-triazole-1-carbonyl)hexahydropyrrolo[3,4-b]pyrrol-1(2H)-yl)quinazolin-7-yl)-7-fluorobenzo[b]thiophene-3-carbonitrile] | A (A: indicates that the ratio of IC50 against KrasG12D vs. IC50 against KrasG12S is 1-fold or greater) |
| Cc1nc(C)n(C(=O)N2CC3(COCCN(c4nc(OC[C@@]56CCCN5C[C@H](F)C6)nc5c(F)c(-c6ccc(F)c7sc(N)c(C#N)c67)c(Cl)cc45)C3)C2)n1 [Compound A185, 2-amino-4-(6-chloro-4-(2-(3,5-dimethyl-1H-1,2,4-triazole-1-carbonyl)-6-oxa-2,9-diazaspiro[3.6]decan-9-yl)-8-fluoro-2-(((2R,7aS)-2-fluorotetrahydro-1H-pyrrolizin-7a(5H)-yl)methoxy)quinazolin-7-yl)-7-fluorobenzo[b]thiophene-3-carbonitrile] | A (A: indicates that the ratio of IC50 against KrasG12D vs. IC50 against KrasG12S is 1-fold or greater) |
